Assay results from the supplement of paper PMC10627819.

Experiments:
[1] = test system: B. subtilis 168; assay: fitness (endpoint OD595 vs no drug) (fraction); higher = more growth
Procedure, shortened: (§1)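 Cultures at OD595 0.01 were dispensed into 384-well plates in TSB, LB Lennox or CY and incubated at 37 °C. Every 30 min for 14 h, OD595 was read and corrected by the first reading. Fitness is the optical density at entry into stationary phase relative to the robust mean of no-drug control wells, capped at 1.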

[2] = test system: S. pneumoniae D39V; assay: as above
Procedure, shortened: as §1

[3] = test system: S. aureus DSM 20231; assay: as above
Procedure, shortened: as §1

[4] = test system: B. subtilis 168; assay: Bliss interaction score (quartile over a dose matrix) (fitness difference); higher = more antagonism (negative = synergy)
Procedure, shortened: (§2)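 Growth was read as OD595 when cultures entered stationary phase, and each value was divided by the plate's robust no-drug mean and capped at 1. This normalised ratio is the fitness value, and fitness for each single drug came from the combination data. The Bliss score subtracts the expected fitness, taken as the product, from the observed fitness and is given as quartiles across technical, biological and donor/recipient replicates.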

[5] = test system: S. pneumoniae D39V; assay: as above
Procedure, shortened: as §2

[6] = test system: S. aureus Newman; assay: as above
Procedure, shortened: as §2

[7] = test system: S. aureus DSM 20231; assay: as above
Procedure, shortened: as §2

[8] = test system: S. aureus Newman; assay: fitness (endpoint OD595 vs no drug) (fraction); higher = more growth; conditions: main component drawn
Procedure, shortened: as §1
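Throughout, for Bliss interaction score (quartile over a dose matrix): first quartile when negative (synergy) and third quartile when positive (antagonism).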

CO/N=C(\C(=O)N[C@@H]1C(=O)N2C(C(=O)O)=C(COC(C)=O)CS[C@H]12)c1csc(N)n1 [Cefotaxime] + CCC[C@@H]1C[C@@H](C(=O)N[C@@H]([C@H]2O[C@H](SC)[C@H](O)[C@@H](O)[C@H]2O)[C@@H](C)O)N(C)C1 [Lincomycin]
fitness, [1], one replicate
Conditions	first compound 0.00775 µg/mL	first compound 0.0155 µg/mL	first compound 0.031 µg/mL	first compound 0.0625 µg/mL	first compound 0.125 µg/mL	first compound 0.25 µg/mL
partner 0.1 µg/mL	–	–	–	0.506	0.44	0.334
partner 0.2 µg/mL	–	–	–	0.548	0.452	0.371
partner 0.4 µg/mL	0.767	0.667	0.452	0.475	0.444	0.319
partner 0.8 µg/mL	0.744	0.619	0.415	–	–	–
partner 1.6 µg/mL	0.683	0.575	0.388	–	–	–

fitness
Conditions	partner 0.1 µg/mL	partner 0.2 µg/mL	partner 0.215 µg/mL	partner 0.4 µg/mL	partner 0.43 µg/mL	partner 0.8 µg/mL	partner 0.86 µg/mL
[1], first compound 0.5 µg/mL	0.257	0.241	–	0.201	–	–	–
[1], first compound 1 µg/mL	0.144	0.126	–	0.0991	–	–	–
[1], first compound 2 µg/mL	0.0702	0.0617	–	0.0675	–	–	–
[2], first compound 0.0018 µg/mL	–	0.667	0.903	0.469	0.759	0.185	0.56
[2], first compound 0.0035 µg/mL	–	0.626	0.866	0.455	0.748	0.142	0.489
[2], first compound 0.007 µg/mL	–	0.566	0.868	0.388	0.791	0.0851	0.469
[3], first compound 0.039 µg/mL	0.748	0.799	–	–	–	–	–
[3], first compound 0.078 µg/mL	0.721	0.728	–	–	–	–	–
[3], first compound 0.156 µg/mL	0.628	0.659	–	0.353	–	–	–
[3], first compound 0.312 µg/mL	0.582	0.569	–	0.188	–	–	–

Conditions	Bliss interaction score
[4]	0.0413
[5]	0.105
[6]	-0.173
[7]	0.0625

COc1cccc2c1C(=O)c1c(O)c3c(c(O)c1C2=O)C[C@@](O)(C(=O)CO)C[C@@H]3O[C@H]1C[C@H](N)[C@H](O)[C@H](C)O1 [Doxorubicin] + CC(=O)NC[C@H]1CN(c2ccc(N3CCOCC3)c(F)c2)C(=O)O1 [Linezolid]
fitness, one replicate
Conditions	first compound 0.625 µg/mL	first compound 1.25 µg/mL	first compound 2.5 µg/mL
[1], partner 0.0625 µg/mL	0.956	0.901	0.574
[3], partner 1 µg/mL	0.0276	0.0358	0.0376

fitness
Conditions	first compound 0.25 µg/mL	first compound 0.5 µg/mL	first compound 0.625 µg/mL	first compound 1 µg/mL	first compound 1.25 µg/mL	first compound 2.5 µg/mL
[1], partner 0.125 µg/mL	–	–	0.556	–	0.489	0.311
[1], partner 0.25 µg/mL	–	–	0.0946	–	0.078	0.0654
[1], partner 0.5 µg/mL	–	–	0.0377	–	0.0497	0.0425
[2], partner 0.105 µg/mL	0.755	0.756	–	0.746	–	–
[2], partner 0.2 µg/mL	0.49	0.487	–	0.412	–	–
[2], partner 0.21 µg/mL	0.633	0.66	–	0.674	–	–
[2], partner 0.4 µg/mL	0.351	0.331	–	0.302	–	–
[2], partner 0.42 µg/mL	0.472	0.432	–	0.377	–	–
[2], partner 0.8 µg/mL	0.155	0.153	–	0.141	–	–
[3], partner 0.125 µg/mL	–	–	0.762	–	0.814	0.716
[3], partner 0.25 µg/mL	–	–	0.617	–	0.603	0.514
[3], partner 0.5 µg/mL	–	–	0.223	–	0.204	0.16

Conditions	Bliss interaction score
[4]	-0.0705
[5]	-0.113
[6]	0.0954
[7]	-0.0425

COc1cccc2c1C(=O)c1c(O)c3c(c(O)c1C2=O)C[C@@](O)(C(=O)CO)C[C@@H]3O[C@H]1C[C@H](N)[C@H](O)[C@H](C)O1 [Doxorubicin] + CCCCCCCCCC(=O)N[C@@H]1[C@H]([C@@H]([C@H](O[C@H]1OC2=C3C=C4C=C2OC5=C(C=C(C=C5)[C@H]([C@H]6C(=O)N[C@@H](C7=C(C(=CC(=C7)O)OC8[C@H]([C@H]([C@@H]([C@H](O8)CO)O)O)O)C9=C(C=CC(=C9)[C@H](C(=O)N6)NC(=O)[C@@H]4NC(=O)[C@@H]1C2=CC(=CC(=C2)OC2=C(C=CC(=C2)[C@H](C(=O)N[C@H](CC2=CC(=C(O3)C=C2)Cl)C(=O)N1)N)O)O)O)C(=O)O)O[C@H]1[C@@H]([C@H]([C@@H]([C@H](O1)CO)O)O)NC(=O)C)Cl)CO)O)O [Teicoplanin]
fitness, [8]
Conditions	first compound 0.625 µg/mL	first compound 1.25 µg/mL	first compound 2.5 µg/mL
partner 0.1562 µg/mL	0.886	0.809	0.728
partner 0.3125 µg/mL	0.872	0.808	0.713
partner 0.625 µg/mL	0.841	0.791	0.677

fitness
Conditions	first compound 0.625 µg/mL	first compound 1.25 µg/mL	first compound 2.5 µg/mL
[3], partner 0.1562 µg/mL, main component drawn	0.889	0.885	0.922
[3], partner 0.3125 µg/mL, main component drawn	0.979	0.965	0.939
[3], partner 0.625 µg/mL, main component drawn	≥ 1	≥ 1	0.978
[8], partner 0.62 µg/mL, one replicate	0.713	0.736	0.716
[8], partner 1.24 µg/mL, one replicate	0.666	0.613	0.622
[8], partner 2.48 µg/mL, one replicate	0.339	0.283	0.237

main component drawn
Conditions	Bliss interaction score
[4]	0.0931
[5]	0.102
[6]	0.0378
[7]	0.0684
